What was measured:
P-glycoprotein (ABCB1) [1] = target: T1, P-glycoprotein (ABCB1) (Homo sapiens, UniProt P08183); test: Inhibition of human P-glycoprotein transfected in pig LLC-GA5-COL150 cells assessed as quinidine transport from apical to basolateral side at 30 uM preincubated for 30 mins followed by quinidine addition to apical side measured after 60 mins; type: cell-based; conditions: LLC-PK1, probe quinidine
[2] = target: ATP-dependent translocase ABCB1 (Homo sapiens, UniProt P08183); test: Inhibition of human P-glycoprotein transfected in pig LLC-GA5-COL150 cells assessed as quinidine transport from apical to basolateral side preincubated for 30 mins followed by quinidine addition to apical side measured after 60 mins; type: cell-based; parameters: log(activity): scale not given here; conditions: for log(activity): human, llc-ga5-col150, 1 h
[3] = Lipophilicity , logP of the compound; type: physicochemical; conditions: octanol/water
P-glycoprotein (ABCB1) [4] = target: T1, P-glycoprotein (ABCB1); test: Inhibition of human P-glycoprotein transfected in pig LLC-GA5-COL150 cells assessed as quinidine transport from apical to basolateral side at 2 uM preincubated for 30 mins followed by quinidine addition to apical side measured after 60 mins; conditions: LLC-PK1, probe quinidine

T1 sequence (P08183 whole entry): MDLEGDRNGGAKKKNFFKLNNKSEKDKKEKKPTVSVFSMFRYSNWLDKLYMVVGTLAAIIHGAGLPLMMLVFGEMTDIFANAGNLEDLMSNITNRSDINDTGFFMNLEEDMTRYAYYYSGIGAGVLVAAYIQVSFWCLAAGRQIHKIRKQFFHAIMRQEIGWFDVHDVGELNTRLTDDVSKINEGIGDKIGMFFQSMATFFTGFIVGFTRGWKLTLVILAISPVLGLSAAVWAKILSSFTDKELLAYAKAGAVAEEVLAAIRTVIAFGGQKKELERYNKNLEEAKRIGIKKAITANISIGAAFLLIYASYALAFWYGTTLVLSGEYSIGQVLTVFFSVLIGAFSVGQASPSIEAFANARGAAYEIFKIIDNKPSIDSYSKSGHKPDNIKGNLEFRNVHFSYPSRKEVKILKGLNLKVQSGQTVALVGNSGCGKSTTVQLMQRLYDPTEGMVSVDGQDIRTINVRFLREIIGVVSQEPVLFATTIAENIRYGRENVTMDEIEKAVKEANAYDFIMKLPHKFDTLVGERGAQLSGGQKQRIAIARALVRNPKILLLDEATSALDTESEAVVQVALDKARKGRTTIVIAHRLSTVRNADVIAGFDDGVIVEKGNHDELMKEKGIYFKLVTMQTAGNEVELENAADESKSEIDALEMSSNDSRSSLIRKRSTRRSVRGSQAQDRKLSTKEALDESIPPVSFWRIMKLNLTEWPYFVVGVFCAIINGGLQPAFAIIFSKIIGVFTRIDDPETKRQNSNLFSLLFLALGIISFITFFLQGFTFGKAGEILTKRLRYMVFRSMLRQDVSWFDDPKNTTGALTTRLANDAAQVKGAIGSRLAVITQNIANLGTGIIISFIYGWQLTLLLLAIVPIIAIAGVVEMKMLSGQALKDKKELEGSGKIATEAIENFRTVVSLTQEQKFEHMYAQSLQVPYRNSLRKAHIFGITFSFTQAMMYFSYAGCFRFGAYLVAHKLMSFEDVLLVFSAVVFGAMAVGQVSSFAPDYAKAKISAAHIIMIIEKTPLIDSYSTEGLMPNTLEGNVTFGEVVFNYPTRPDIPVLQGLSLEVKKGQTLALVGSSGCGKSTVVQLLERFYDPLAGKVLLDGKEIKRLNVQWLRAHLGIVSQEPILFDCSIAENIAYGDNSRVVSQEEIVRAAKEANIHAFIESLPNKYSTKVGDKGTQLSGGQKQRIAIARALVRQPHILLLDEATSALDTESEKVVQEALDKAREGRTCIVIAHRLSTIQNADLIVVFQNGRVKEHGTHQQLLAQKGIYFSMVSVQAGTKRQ
Chain of ATP-dependent translocase ABCB1 (P08183 whole entry): as above

SMILES	inhibition at 1 h, 30 µM (P-glycoprotein (ABCB1) [1]) [%]	log(activity) [2]	logP [3]	IC50 [2] [µM]	inhibition at 1 h, 2 µM (P-glycoprotein (ABCB1) [4]) [%]
CC(C)(C)N(NC(=O)c1ccc(Cl)cc1Cl)C(=O)c1ccccc1Cl	40.7	-0.16	3.71	–	–
Cc1ccc(C)c(C(=O)NN(C(=O)c2ccccc2Cl)C(C)(C)C)c1	26.8	-0.44	3.4	73.6	–
CC(C)(C)N(NC(=O)c1c(Cl)cccc1Cl)C(=O)c1ccccc1Cl	5.8	-1.21	3.03	–	–
COc1cccc(C(=O)NN(C(=O)c2cc(C)cc(C)c2)C(C)(C)C)c1	34.2	-0.28	3.75	58.1	–
CC(C)(C)N(NC(=O)c1cccc([N+](=O)[O-])c1)C(=O)c1ccccc1Cl	16.6	-0.7	2.73	64.4	–
CC(C)(C)N(NC(=O)c1c(F)cccc1Cl)C(=O)c1ccccc1Cl	6.9	-1.13	2.67	–	–
CC(=O)c1ccc(C(=O)NN(C(=O)c2ccccc2Cl)C(C)(C)C)cc1	5.3	-1.25	–	–	–
Cc1cc(C)cc(C(=O)NN(C(=O)c2ccccc2Cl)C(C)(C)C)c1	22.4	-0.54	3.67	–	–
CSc1ccccc1C(=O)NN(C(=O)c1ccccc1Cl)C(C)(C)C	7	-1.13	2.84	–	–
Cc1cc(C)cc(C(=O)N(NC(=O)c2ccc(Cl)cc2)C(C)(C)C)c1	14.2	-0.78	4.31	–	–
CCc1ccc(C(=O)NN(C(=O)c2cc(C)cc(C)c2)C(C)(C)C)cc1 [TEBUFENOZIDE]	53.3	0.06	–	21.5	–
CCOc1cccc(C(=O)NN(C(=O)c2cc(C)cc(C)c2)C(C)(C)C)c1	50.9	0.02	4.28	39.9	–
CCCc1ccc(C(=O)NN(C(=O)c2ccccc2Cl)C(C)(C)C)cc1	48.7	-0.02	–	–	–
CC(C)(C)N(NC(=O)c1ccccc1I)C(=O)c1ccccc1Cl	21.8	-0.55	3.11	–	–
CC(C)(C)N(NC(=O)c1ccccc1)C(=O)c1ccccc1Cl	5.4	-1.25	–	–	–
Cc1cccc(C(=O)NN(C(=O)c2cc(C)cc(C)c2)C(C)(C)C)c1	36.8	-0.23	3.98	48.2	–
CC(C)(C)N(NC(=O)c1ccccc1F)C(=O)c1ccccc1Cl	5.9	-1.21	–	–	–
CC(C)(C)N(NC(=O)c1cccc(I)c1)C(=O)c1ccccc1Cl	63.9	0.25	3.87	–	–
Cc1cc(C)cc(C(=O)N(NC(=O)c2cc(F)c(F)cc2F)C(C)(C)C)c1	1.9	–	3.71	–	–
CC(C)(C)N(NC(=O)c1cccc(C#N)c1)C(=O)c1ccccc1Cl	9.5	-0.98	2.48	–	–

SMILES	inhibition at 1 h, 30 µM (P-glycoprotein (ABCB1) [1]) [%]	log(activity) [2]	logP [3]	IC50 [2] [µM]	inhibition at 1 h, 2 µM (P-glycoprotein (ABCB1) [4]) [%]
CC(C)(C)N(NC(=O)c1cccc(Cl)c1)C(=O)c1ccccc1Cl	27.3	-0.43	–	45.7	–
CC(C)(C)N(NC(=O)c1cccc(F)c1)C(=O)c1ccccc1Cl	7.6	-1.08	–	–	–
CC(C)(C)N(NC(=O)c1cccc(C(F)(F)F)c1)C(=O)c1ccccc1Cl	33.4	-0.3	3.7	43.8	–
Cc1cccc(C(=O)NN(C(=O)c2ccccc2Cl)C(C)(C)C)c1C	9.3	-0.99	3.4	–	–
Cc1cc(C)cc(C(=O)N(NC(=O)c2ccc(C(C)C)cc2)C(C)(C)C)c1	49	-0.02	4.91	–	–
CC(C)(C)N(NC(=O)c1ccccc1C(F)(F)F)C(=O)c1ccccc1Cl	15.6	-0.73	3.02	–	–
COc1ccccc1C(=O)NN(C(=O)c1ccccc1Cl)C(C)(C)C	6.7	-1.14	2.37	–	–
Cc1cc(C)cc(C(=O)N(NC(=O)c2ccc(F)c(F)c2F)C(C)(C)C)c1	2.5	–	3.64	–	–
CCc1ccc(C(=O)NN(C(=O)c2ccccc2Cl)C(C)(C)C)cc1	23	-0.52	–	–	–
Cc1cccc(C(=O)NN(C(=O)c2ccccc2Cl)C(C)(C)C)c1	11.5	-0.89	–	–	–
Cc1ccc(C(=O)NN(C(=O)c2ccccc2Cl)C(C)(C)C)cc1C	20.8	-0.58	3.65	–	–
CC(C)(C)N(NC(=O)c1ccc(C(F)(F)F)cc1)C(=O)c1ccccc1Cl	16.2	-0.71	–	–	–
Cc1cc(C)cc(C(=O)N(NC(=O)c2ccc(C)c(C)c2C)C(C)(C)C)c1	54.2	0.07	4.88	–	–
COc1cc2c(cc1OC)CN(CCc1ccc(NC(=O)c3cccc4c(=O)c5cccc(OC)c5[nH]c34)cc1)CC2	–	–	–	–	100
CC(C)(C)N(NC(=O)c1ccccc1Br)C(=O)c1ccccc1Cl	10.1	-0.95	2.91	–	–
CCCc1ccc(C(=O)NN(C(=O)c2cc(C)cc(C)c2)C(C)(C)C)cc1	58.4	0.15	4.86	15.2	–
Cc1cc(C)cc(C(=O)N(NC(=O)c2ccccc2)C(C)(C)C)c1	17	-0.69	–	100	–
CC(C)(C)N(NC(=O)c1ccc(C#N)cc1)C(=O)c1ccccc1Cl	4.9	-1.29	–	–	–
Cc1ccc(C(=O)NN(C(=O)c2ccccc2Cl)C(C)(C)C)cc1	7.3	-1.1	–	–	–
CC(C)(C)N(NC(=O)c1cc(Cl)ccc1Cl)C(=O)c1ccccc1Cl	44.2	-0.1	3.75	46.7	–

SMILES	inhibition at 1 h, 30 µM (P-glycoprotein (ABCB1) [1]) [%]	log(activity) [2]	logP [3]	IC50 [2] [µM]	inhibition at 1 h, 2 µM (P-glycoprotein (ABCB1) [4]) [%]
CC(C)(C)N(NC(=O)c1ccccc1-c1ccccc1)C(=O)c1ccccc1Cl	80.3	0.61	3.77	12.5	–
CC(C)(C)N(NC(=O)c1cccc(Br)c1)C(=O)c1ccccc1Cl	33	-0.31	3.62	–	–
Cc1cc(C)cc(C(=O)N(NC(=O)c2ccc(C(F)(F)F)cc2)C(C)(C)C)c1	0.9	–	4.66	–	–
CC(C)(C)N(NC(=O)c1cccc(Cl)c1Cl)C(=O)c1ccccc1Cl	45	-0.09	3.75	–	–
CC(C)(C)N(NC(=O)c1ccc(F)cc1)C(=O)c1ccccc1Cl	4.8	-1.3	–	–	–
Cc1cc(C)cc(C(=O)N(NC(=O)c2ccccc2C)C(C)(C)C)c1	22.3	-0.54	3.98	79.9	–
CC(C)(C)N(NC(=O)c1c(F)cccc1F)C(=O)c1ccccc1Cl	4.2	-1.36	2.35	–	–
CC(C)(C)N(NC(=O)c1cc(Cl)cc(Cl)c1)C(=O)c1ccccc1Cl	97.2	–	4.29	–	–
COc1cccc(C(=O)NN(C(=O)c2ccccc2Cl)C(C)(C)C)c1C	12.2	-0.86	3.46	–	–
COc1cccc(C(=O)NN(C(=O)c2ccccc2Cl)C(C)(C)C)c1	10.8	-0.92	2.81	–	–
COc1cccc(C(=O)NN(C(=O)c2cc(C)cc(C)c2)C(C)(C)C)c1C [METHOXYFENOZIDE]	32	-0.33	–	44.3	–
Cc1ccc(C(=O)NN(C(=O)c2cc(C)cc(C)c2)C(C)(C)C)cc1	30.9	-0.35	3.95	–	–
Cc1cc(C)cc(C(=O)N(NC(=O)c2cccc(O)c2)C(C)(C)C)c1	1	–	3.34	–	–
COc1ccc(C(=O)NN(C(=O)c2ccccc2Cl)C(C)(C)C)cc1	6.9	-1.13	–	–	–
CC(C)(C)N(NC(=O)c1ccccc1[N+](=O)[O-])C(=O)c1ccccc1Cl	1.7	–	1.99	–	–
Cc1cc(C)cc(C(=O)N(NC(=O)c2cccc(C)c2C)C(C)(C)C)c1	41.1	-0.16	4.43	–	–
CC(C)(C)N(NC(=O)c1ccccc1Cl)C(=O)c1ccccc1Cl	5.3	-1.25	–	–	–
CC(C)(C)N(NC(=O)c1ccc(Cl)c(Cl)c1)C(=O)c1ccccc1Cl	98.9	–	4.25	–	–
Cc1cc(C)cc(C(=O)N(NC(=O)c2cccc(O)c2C)C(C)(C)C)c1	0.5	–	3.84	–	–
